Structure (SMILES)	melting point [°C]
Brc1ccc(N2CCN(CCCc3[nH]nc4c3CCCC4)CC2)cc1	145 to 147
CC(=O)Nc1ccc(Br)c2c1CCN(C(C)=O)C2	179 to 181
CCOP(=O)(O)C(=Nc1ccc(-c2c[nH]cn2)cc1)NCCSC	240 to 241
CN(C)C(=O)Nc1ccc(OCC(=O)c2ccccc2)c(Cl)c1	148 to 150
Cc1ccccc1NC(=O)NCC1(c2ccccc2)CCCCC1	171 to 174
COc1ccc(C(=O)Nc2ccc3sc(C)nc3c2Cl)cc1	182
CC(=O)Nc1ccn([C@@H]2[C@H](O)[C@H](O)CC[C@H]2OC(C)=O)c(=O)n1 (racemic)	249
CC(C)c1ccc(C2c3cc(N)ccc3OC2(C)C)cc1 (stereo unspecified)	109 to 110
O=S1(=O)NC=Nc2c(Br)cc(Br)cc21	289 to 292
Cc1c(C(=O)CS(=O)(=O)Cc2ccc(Cl)cc2)sc2ccc(Cl)cc12	204 to 206
FC(F)(F)C(F)(F)Cc1ccc(CBr)cc1	62 to 63
O=Cc1c[nH]c2cc(C(=O)NCC3CCCC3)ccc12	224 to 225
O=C(O)c1cc(Cn2cc(C3c4ccccc4C=Cc4ccccc43)c(=S)[nH]c2=O)ccc1O	> 240
CC(C)=C1c2ccccc2-c2ccccc21	112 to 113
Cc1nnc(S(=O)(=O)C(Br)(Br)Br)s1	169 to 173
COCN(c1cccc2cc(-c3ncn(C)n3)n(COC)c12)S(=O)(=O)c1cccs1	157 to 158
COc1ccccc1[C@H](c1cccc2ccccc12)[C@@](C)(C#N)C(=O)N1CCN(c2ccccc2Cl)CC1	145 to 147
Nc1nnnc(-c2c[nH]nn2)c1-c1cnnnn1	215
COc1cc(OC)nc(NC(=O)NS(=O)(=O)c2c3c(Cl)cccc3nn2C)n1	171 to 172
CCOC(=O)c1cn(C)c2cnc3c(F)c(N4CCC(O)(c5cccc(C(F)(F)F)c5)CC4)ccc3c2c1=O	> 260
CN1CNS(=O)(=O)c2cc(O)ccc21	168 to 172
O=C1CCc2c(Cl)cc(Cl)c(I)c21	170 to 172
O=C(Nc1c([N+](=O)[O-])ccc2c3c(oc12)CCCC3)c1c(Cl)cccc1Cl	246 to 248
Cc1nc(-c2cc(C#N)c(=O)[nH]c2C)cs1	305 to 307
CCCCCOc1ccc(-c2ccc(-c3ccccc3CC)cc2)cc1	62 to 65
CN1CCC(OC2c3ccc(Br)cc3CCn3cc(-c4ccccc4)nc32)CC1 (stereo unspecified)	92

Structure (SMILES)	melting point [°C]
N#Cc1ccc(N)c(F)c1F	108 to 110
COc1ccc(-c2nc3cc4c(cc3[nH]2)C(C)(C)CC(=O)N4)cc1	235 to 238
CCCOc1ccc(-c2cc(C)cn2-c2ccc(S(N)(=O)=O)cc2)cc1	142 to 145
C=CCC(CC)(NC)C(=O)c1ccc(OCCO)cc1 (stereo unspecified)	80 to 82
CCOC(=O)CN1C(=O)C(N[C@H]2CCCCNC2=O)CCc2ccccc21 (stereo partly specified)	148 to 150
COC(=O)CSc1nc(Nc2ccc(N3CCC(C)CC3)cc2)ncc1[N+](=O)[O-]	180 to 184
CCCCCCCCCCCCCCCCc1cc2c(s1)-n1c(C)nnc1CN=C2c1ccccc1Cl	58 to 60
N#Cc1cc(C(=O)NNC(=O)c2occc2-c2ccccc2-c2ccccc2)ccc1O	159 to 162
FC(F)(F)CSc1nc(-c2ccc(Cl)cc2)c(-c2ccc(Cl)cc2)[nH]1	212 to 213
CSCCC(S)C(=O)NC1(C(=O)NC(Cc2ccc(-c3ccsc3)nc2)C(=O)O)CCCC1 (stereo unspecified)	170 to 172
CC(C)(C)OC(=O)N[C@@H](Cc1ccccc1)C(=O)C=[N+]=[N-]	87 to 90
CCN(CC)C(=O)c1ccc(C(c2cccc(O)c2)N2CC(C)NCC2C)cc1 (stereo unspecified)	175 to 177
O=c1ncnc2cc3[nH][nH]cc3cc12	330
CCC1(C)OC(c2ccc(S(N)(=O)=O)cc2)=C(c2ccc(OC)c(F)c2)C1=O (stereo unspecified)	113 to 114
CCOC(=O)C1=C(C)NC2=C(C(=O)OC2)C1c1ccccc1[N+](=O)[O-] (stereo unspecified)	220 to 222
Cc1cc(CNC(=O)c2ccnc(N3CCN(Cc4ccc(F)cc4)C3=O)c2)nn1C	150 to 152
O=S1(=O)c2cccc3cccc(c23)N1CCCl	96
COc1cnc(CCCOc2cccc(CN3CCCC3)c2)[nH]c1=O	92 to 95
CCNCCC(=O)N1c2ccccc2CCc2ccc(NC(=O)OCC)cc21	150
CCOC(=O)c1cnc2sccc2c1Cl	71 to 72
O=Cc1cn(C(c2ccccc2)(c2ccccc2)c2ccccc2)c(F)n1	177 to 179
CCOC(=O)C(=NO)C(=O)Nc1ccc(Cl)cc1C(=O)c1ccccc1	98 to 105
C[C@@H](C(N)=O)c1ccc(NS(=O)(=O)c2ccc(C(F)(F)F)cc2)cc1	178 to 180
O=c1cc(C(F)(F)F)nc(Cl)n1-c1cc(Oc2ccccc2[N+](=O)[O-])c(Cl)cc1F	128 to 131
CC(C)C[C@@H](OS(=O)(=O)c1ccc([N+](=O)[O-])cc1)C(=O)O	60 to 62
CC(=O)C(=[N+]=[N-])C(=O)CCCCCCCCCc1ccc(S(=O)(=O)Cl)cc1	48.5 to 50

Structure (SMILES)	melting point [°C]
CNS(=O)(=O)c1cccnc1S(=O)(=O)NC(=O)Nc1nc(OC)cc(OC)n1	147 to 148
O=Cc1ccc(OC(F)F)c([N+](=O)[O-])c1	88 to 90
CC[C@H]1[C@@H](O)C(F)(F)C(=O)N1c1ccc(C#N)c(OC)c1	161 to 164
CC(C(O)c1ccc(OC(=O)c2ccc(CNC(C)(C)C)cc2)cc1)N1CCC(O)(c2ccccc2)CC1 (stereo unspecified)	195 to 197
CCOC(=O)c1ccn(-c2ccc(OC(F)(F)F)cc2)n1	76 to 78
O=C(N[C@@H](CSc1ccccc1[N+](=O)[O-])C(=O)O)OCc1ccccc1	84 to 88
COC(=O)N1C(=O)c2ccccc2C1=O	184
Cc1ccc(-c2nnc(N3CCC(C)CC3)nc2-c2ccc(C)cc2)cc1	140 to 142
CC(C)(C)OC(=O)CCC1(C(=O)O)CCCC1	78 to 81
Cc1cccc(C(=O)CC(Cc2ccccc2)C(=O)O)c1 (stereo unspecified)	158 to 161
COC(=O)NC1=NCC(c2ccc(F)cc2)N1C (stereo unspecified)	153 to 155
Fc1cc(Cl)c(OC(F)F)cc1-c1ncnc(C(F)F)c1Cl	56 to 57
O=C1c2ccccc2C(=O)N1Cc1cc(I)ccc1Cl	134 to 136
COc1ccc2[nH]c3cc(-c4ccccc4-c4ccccc4)c4c(c3c2c1)C(=O)NC4=O	220 to 223
COc1ccccc1NC(=S)NC(NC(=O)c1ccc(C)cc1)C(F)(F)F (stereo unspecified)	212 to 214
CC(C)c1c(Sc2ccccc2)n(CC2CC=CC2)c(=O)[nH]c1=O	131 to 134
Cc1cc2c(cc1O)C(C1(CC3CCCC3)CC1)N(C)CC2 (stereo unspecified)	136 to 138
Nc1ncc2ncn(OCC(O)CO)c2n1 (stereo unspecified)	183 to 185
COc1ccc(-c2nc(-c3ccccc3Cl)sc2-c2ccc(S(C)(=O)=O)cc2)cc1	172 to 174
COc1ccc(NC=O)c(COC=O)c1	117
O=C1NC(=O)C(=Cc2ccc(-c3cc(C45CC6CC(CC(C6)C4)C5)c4oc(NC(=O)C(F)(F)F)nc4c3)nc2)S1	353
O=C(NC1CCc2ccccc2C1=O)c1ccccc1 (stereo unspecified)	175
CC(=O)c1cc(F)ccc1Oc1nc2ccc(Br)cc2cc1Cc1ccccc1	115 to 117
C[C@@H]1C(=O)C=CN2c3ccccc3CC[C@@H]12 (relative stereo)	148 to 150
Cc1ccc(S(=O)(=O)N2CCC[C@H]2C(=O)N[C@@H](Cc2ccc(OCC(=O)NC(C)(C)C)cc2)C(=O)O)cc1	88 to 89
COc1ccc(-n2nc(C(=O)O)c3c2CCCC3)cc1	233 to 234

Structure (SMILES)	melting point [°C]
O=C(O)Cc1ccc(NC(=O)C(COc2ccc(Cl)cc2)NS(=O)(=O)c2ccc(I)cc2)cc1 (racemic)	196 to 198
CC(=O)OCc1c(Br)cccc1[N+](=O)[O-]	36 to 37
O=C(CBr)Nc1coc2ccccc2c1=O	198
COc1ccc(/C=C/c2cc(/C=C/c3c[nH]c4ccccc34)n[nH]2)cc1OCc1ccccn1	232 to 243
COC(=O)c1cc(CO)ccc1OCc1nc(-c2ccco2)oc1C	131 to 132
O=C(CCCCCCS(=O)(=O)c1ccccc1)c1ncco1	55 to 56
CNC(=C[N+](=O)[O-])NCc1ccc(Cl)cc1	219 to 220
CC=CCn1c(=O)n(C2OC(CO)C(O)C2O)c2nc(N)[nH]c(=O)c21 (stereo unspecified)	167 to 170
COC(=O)c1coc(CN2C(=O)C3(COc4cc5onc(C)c5cc43)c3ccccc32)n1 (stereo unspecified)	148 to 152
COc1ccc(C(=O)c2sc3ccccc3c2-c2ccccc2)cc1	94 to 95
COc1ccc([C@@H]2CN(C)CC[C@@H]2NC(=O)c2ccccc2)cc1 (relative stereo)	164 to 165
CCCN=C(N)Nc1ccnc(CCCCc2ncc(C)c(O)n2)n1	213 to 215
CC(C)(C)OC(=O)N[C@H](CC(=O)OCc1ccccc1)C(=O)N[C@H](CO)Cc1ccccc1	94 to 95
COc1ccc(S(=O)(=O)N(C(=O)c2snc(Cl)c2Cl)c2ccc(Cl)cc2)cc1	154 to 158
Fc1ccccc1C1=NCc2c(N3CCCC3)ncn2-c2ccc(Cl)cc21	114 to 118
CCN(CC)S(=O)(=O)c1ccccc1N	45 to 51
S=S1N=C2SCSC2=N1	99
CON(C)C(=O)Nc1c(C(=O)C2CCCCC2)[nH]c2cc(Cl)ccc12	208 to 210
FC(F)(F)c1nnc(SCc2ccccc2Cl)s1	36 to 37
COc1ccc(S(=O)(=O)N2C(=O)C(c3ccccc3OC)(N3Cc4ccccc4C[C@H]3C(=O)N(C)C)c3cc(Cl)c(Cl)cc32)c(OC)c1 (stereo partly specified)	155
N#Cc1ccc(Cn2cncn2)cc1-c1ccc(Cl)c(OS(N)(=O)=O)c1	148 to 150
C=CCc1c(O)nc(N)nc1O	> 250
COc1ccc(-c2sc3c(c2OC(C)=O)CCCc2ccccc2-3)cc1	154
